# Experimental data published in PubChem BioAssay (NCI).
#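 GI50 marks 50% less growth. At the TGI there is no net growth.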
# Key:
# Test in all cases: inhibition of tumour cell growth, NCI panel, 384-well format
# OVCAR-5 ovarian = tested on: OVCAR-5 ovarian
# NCI-H23 lung = tested on: NCI-H23 lung
# HOP-92 NSCLC = tested on: HOP-92 NSCLC
# 786-0 renal = tested on: 786-0 renal
# A498 renal = tested on: A498 renal
# COLO 205 colon = tested on: COLO 205 colon
# SK-OV-3 ovarian = tested on: SK-OV-3 ovarian
# HL-60(TB) leukemia = tested on: HL-60(TB) leukemia
# CCRF-CEM leukemia = tested on: CCRF-CEM leukemia
# RPMI-8226 leukemia = tested on: RPMI-8226 leukemia
# M14 melanoma = tested on: M14 melanoma
# PC-3 prostate = tested on: PC-3 prostate
# SNB-19 CNS = tested on: SNB-19 CNS
# SW-620 colon = tested on: SW-620 colon
# DU-145 prostate = tested on: DU-145 prostate
# UACC-62 melanoma = tested on: UACC-62 melanoma
# SF-539 CNS = tested on: SF-539 CNS
# HCT-116 colon = tested on: HCT-116 colon
# MDA-MB-435 melanoma = tested on: MDA-MB-435 melanoma
# UACC-257 melanoma = tested on: UACC-257 melanoma
# MCF7 breast = tested on: MCF7 breast
# HCC-2998 colon = tested on: HCC-2998 colon
# NCI-H226 lung = tested on: NCI-H226 lung
# NCI-H322M lung = tested on: NCI-H322M lung
# OVCAR-8 ovarian = tested on: OVCAR-8 ovarian
# HOP-62 NSCLC = tested on: HOP-62 NSCLC
# K-562 leukemia = tested on: K-562 leukemia
# OVCAR-4 ovarian = tested on: OVCAR-4 ovarian
# MDA-MB-468 breast = tested on: MDA-MB-468 breast
# SN12C renal = tested on: SN12C renal
# SF-295 CNS = tested on: SF-295 CNS
# HCT-15 colon = tested on: HCT-15 colon
# A549 NSCLC = tested on: A549 NSCLC
# SF-268 CNS = tested on: SF-268 CNS
# U251 glioblastoma = tested on: U251 glioblastoma
# SK-MEL-2 melanoma = tested on: SK-MEL-2 melanoma
# BT-549 breast = tested on: BT-549 breast
# SR leukemia = tested on: SR leukemia
# T-47D breast = tested on: T-47D breast
# MOLT-4 leukemia = tested on: MOLT-4 leukemia
# MALME-3M melanoma = tested on: MALME-3M melanoma
# TK-10 renal = tested on: TK-10 renal
# ACHN renal = tested on: ACHN renal
# LOX IMVI melanoma = tested on: LOX IMVI melanoma
# UO-31 renal = tested on: UO-31 renal
# NCI-H522 lung = tested on: NCI-H522 lung
# IGROV1 ovarian = tested on: IGROV1 ovarian
# MDA-MB-231 breast = tested on: MDA-MB-231 breast
# RXF 393 renal = tested on: RXF 393 renal
# NCI-H460 NSCLC = tested on: NCI-H460 NSCLC
# HT29 colon = tested on: HT29 colon
# OVCAR-3 ovarian = tested on: OVCAR-3 ovarian
# KM12 colon = tested on: KM12 colon
# SK-MEL-28 melanoma = tested on: SK-MEL-28 melanoma
# NCI/ADR-RES ovarian = tested on: NCI/ADR-RES ovarian
# CAKI-1 renal = tested on: CAKI-1 renal
# SK-MEL-5 melanoma = tested on: SK-MEL-5 melanoma
structure (smiles),measurement,setting,value
COc1ccc([C@H](CC(=O)O)N2CCN(CCCc3ccc4c(n3)NCCC4)C2=O)cn1,GI50,OVCAR-5 ovarian,0.0927 µM
same,TGI,OVCAR-5 ovarian,62.9 µM
same,GI50,NCI-H23 lung,> 100 µM
same,TGI,NCI-H23 lung,> 100 µM
same,GI50,HOP-92 NSCLC,0.166 µM
same,TGI,HOP-92 NSCLC,0.933 µM
same,GI50,786-0 renal,0.495 µM
same,TGI,786-0 renal,24.9 µM
same,GI50,A498 renal,0.0192 µM
same,TGI,A498 renal,1.04 µM
same,GI50,COLO 205 colon,36.8 µM
same,TGI,COLO 205 colon,> 100 µM
same,GI50,SK-OV-3 ovarian,3.35 µM
same,TGI,SK-OV-3 ovarian,65.4 µM
same,GI50,HL-60(TB) leukemia,> 100 µM
same,TGI,HL-60(TB) leukemia,> 100 µM
same,GI50,CCRF-CEM leukemia,34.7 µM
same,TGI,CCRF-CEM leukemia,> 100 µM
same,GI50,RPMI-8226 leukemia,7.91 µM
same,TGI,RPMI-8226 leukemia,21.1 µM
same,GI50,M14 melanoma,40.6 µM
same,TGI,M14 melanoma,> 100 µM
same,GI50,PC-3 prostate,29.1 µM
same,TGI,PC-3 prostate,> 100 µM
same,GI50,SNB-19 CNS,0.302 µM
same,TGI,SNB-19 CNS,> 100 µM
same,GI50,SW-620 colon,88.2 µM
same,TGI,SW-620 colon,> 100 µM
same,GI50,DU-145 prostate,1.13 µM
same,TGI,DU-145 prostate,> 100 µM
same,GI50,UACC-62 melanoma,38 µM
same,TGI,UACC-62 melanoma,> 100 µM
same,GI50,SF-539 CNS,10.1 µM
same,TGI,SF-539 CNS,49.2 µM
same,GI50,HCT-116 colon,35.3 µM
same,TGI,HCT-116 colon,> 100 µM
same,GI50,MDA-MB-435 melanoma,96.3 µM
same,TGI,MDA-MB-435 melanoma,> 100 µM
same,GI50,UACC-257 melanoma,44.7 µM
same,TGI,UACC-257 melanoma,> 100 µM
same,GI50,MCF7 breast,30.6 µM
same,TGI,MCF7 breast,> 100 µM
same,GI50,HCC-2998 colon,42.9 µM
same,TGI,HCC-2998 colon,> 100 µM
same,GI50,NCI-H226 lung,1.61 µM
same,TGI,NCI-H226 lung,42.6 µM
same,GI50,NCI-H322M lung,52.6 µM
same,TGI,NCI-H322M lung,> 100 µM
same,GI50,OVCAR-8 ovarian,11.7 µM
same,TGI,OVCAR-8 ovarian,> 100 µM
same,GI50,HOP-62 NSCLC,1.24 µM
same,TGI,HOP-62 NSCLC,21.7 µM
same,GI50,K-562 leukemia,65.8 µM
same,TGI,K-562 leukemia,> 100 µM
same,GI50,OVCAR-4 ovarian,0.0228 µM
same,TGI,OVCAR-4 ovarian,15.2 µM
same,GI50,MDA-MB-468 breast,23.3 µM
same,TGI,MDA-MB-468 breast,68.8 µM
same,GI50,SN12C renal,36.7 µM
same,TGI,SN12C renal,> 100 µM
same,GI50,SF-295 CNS,41.1 µM
same,TGI,SF-295 CNS,> 100 µM
same,GI50,HCT-15 colon,44.7 µM
same,TGI,HCT-15 colon,> 100 µM
same,GI50,A549 NSCLC,7.2 µM
same,TGI,A549 NSCLC,> 100 µM
same,GI50,SF-268 CNS,0.336 µM
same,TGI,SF-268 CNS,28.1 µM
same,GI50,U251 glioblastoma,0.561 µM
same,TGI,U251 glioblastoma,> 100 µM
same,GI50,SK-MEL-2 melanoma,0.0476 µM
same,TGI,SK-MEL-2 melanoma,> 100 µM
same,GI50,BT-549 breast,0.162 µM
same,TGI,BT-549 breast,0.564 µM
same,GI50,SR leukemia,31.5 µM
same,TGI,SR leukemia,86.5 µM
same,GI50,T-47D breast,14.2 µM
same,TGI,T-47D breast,51 µM
same,GI50,MOLT-4 leukemia,21.5 µM
same,TGI,MOLT-4 leukemia,66.3 µM
same,GI50,MALME-3M melanoma,25.4 µM
same,TGI,MALME-3M melanoma,> 100 µM
same,GI50,TK-10 renal,0.0253 µM
same,TGI,TK-10 renal,0.13 µM
same,GI50,ACHN renal,0.516 µM
same,TGI,ACHN renal,52.3 µM
same,GI50,LOX IMVI melanoma,21.1 µM
same,TGI,LOX IMVI melanoma,67.1 µM
same,GI50,UO-31 renal,1.29 µM
same,TGI,UO-31 renal,8.86 µM
same,GI50,NCI-H522 lung,0.151 µM
same,TGI,NCI-H522 lung,14.6 µM
same,GI50,IGROV1 ovarian,0.914 µM
same,TGI,IGROV1 ovarian,15.9 µM
same,GI50,MDA-MB-231 breast,1.73 µM
same,TGI,MDA-MB-231 breast,78.3 µM
same,TGI,RXF 393 renal,0.0412 µM
same,GI50,NCI-H460 NSCLC,20.3 µM
same,TGI,NCI-H460 NSCLC,> 100 µM
same,GI50,HT29 colon,32.5 µM
same,TGI,HT29 colon,> 100 µM
same,GI50,OVCAR-3 ovarian,13.3 µM
same,TGI,OVCAR-3 ovarian,> 100 µM
same,GI50,KM12 colon,55.7 µM
same,TGI,KM12 colon,> 100 µM
same,GI50,SK-MEL-28 melanoma,44.5 µM
same,TGI,SK-MEL-28 melanoma,> 100 µM
same,GI50,NCI/ADR-RES ovarian,> 100 µM
same,TGI,NCI/ADR-RES ovarian,> 100 µM
same,GI50,CAKI-1 renal,0.023 µM
same,TGI,CAKI-1 renal,0.132 µM
same,GI50,SK-MEL-5 melanoma,83.8 µM
same,TGI,SK-MEL-5 melanoma,> 100 µM
